# Patent publication US20150306108A1, “COMPOSITIONS OF ALDH1A1 INHIBITORS AND METHODS OF USE IN TREATING CANCER” (Indiana University Research & Technology Corporation, priority 2014, published 2015)
# Where two headings read alike, the source gives them in different places.
# Experiments:
# ALDH1A2 = molecular target: T1, ALDH1A2 (Homo sapiens, UniProt O94788); assay: biochemical; format: biochemical; settings: for effect on aldehyde oxidation catalyzed by ALDH1A2: 100 μM compound (CM037: concentrations up to 100 μM)
# T1 sequence (O94788 1-518): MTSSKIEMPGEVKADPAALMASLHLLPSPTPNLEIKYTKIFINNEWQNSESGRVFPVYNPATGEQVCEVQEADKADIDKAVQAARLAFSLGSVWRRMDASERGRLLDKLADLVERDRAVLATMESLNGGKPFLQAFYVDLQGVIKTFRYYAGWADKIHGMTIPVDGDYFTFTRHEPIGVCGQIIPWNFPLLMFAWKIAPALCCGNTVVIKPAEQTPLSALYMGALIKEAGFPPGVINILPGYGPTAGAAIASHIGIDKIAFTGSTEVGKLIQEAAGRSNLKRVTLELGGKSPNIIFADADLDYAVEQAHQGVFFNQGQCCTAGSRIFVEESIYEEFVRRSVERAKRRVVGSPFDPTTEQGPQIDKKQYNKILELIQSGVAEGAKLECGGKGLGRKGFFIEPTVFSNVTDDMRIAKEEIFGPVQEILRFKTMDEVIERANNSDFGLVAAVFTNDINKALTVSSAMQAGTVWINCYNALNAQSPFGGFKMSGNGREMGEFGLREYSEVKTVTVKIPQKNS
# ALDH3A1 = molecular target: T2, ALDH3A1 (Homo sapiens, UniProt P30838); assay: ALDH3A1 benzaldehyde oxidation activity assay; format: biochemical; settings: for IC50: Table 4, NI/NI(A) at 100 μM compound, read-out: IC50 in μM (SE) ALDH3A1
# T2 construct: made in house
# T2 sequence (P30838 1-453): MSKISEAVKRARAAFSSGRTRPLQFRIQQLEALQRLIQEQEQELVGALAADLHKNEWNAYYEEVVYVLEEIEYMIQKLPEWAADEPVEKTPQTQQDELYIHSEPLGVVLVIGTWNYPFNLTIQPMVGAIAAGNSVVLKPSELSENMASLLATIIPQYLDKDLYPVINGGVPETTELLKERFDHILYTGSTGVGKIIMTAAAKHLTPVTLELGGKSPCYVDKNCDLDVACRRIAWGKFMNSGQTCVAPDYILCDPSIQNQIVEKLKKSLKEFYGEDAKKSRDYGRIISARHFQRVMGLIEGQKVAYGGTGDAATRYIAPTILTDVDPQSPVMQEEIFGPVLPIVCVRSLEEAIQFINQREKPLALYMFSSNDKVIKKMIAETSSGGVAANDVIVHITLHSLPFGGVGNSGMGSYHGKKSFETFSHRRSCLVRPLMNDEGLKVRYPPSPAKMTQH
# Experimental: Hits from the HTS were ordered from ChemDiv to determine if they had any effect on aldehyde oxidation and whether they were selective for ALDH1A1 compared to ALDH2 and ALDH3A1. Dehydrogenase activity of the three isoenzymes were assayed by monitoring the production of NADH at 340 nm (molar extinction coefficient of 6220 M^−1 cm^−1) on a Beckman DU-640 or Cary 300 Bio UV-Vis spectrophotometer for 2 to 3 minutes. For ALDH1A1 and ALDH2, the reaction contained 100-200 nM enzyme, 200 μM NAD^+, 100 μM propionaldehyde, and 1% DMSO in 50 mM Na^+ BES, pH 7.5 at room temperature. For ALDH3A1, the reaction contained 20 nM enzyme, 200 μM NAD^+, 300 μM benzaldehyde, and 1% DMSO in either 100 mM sodium phosphate or 50 mM Na^+ BES at pH 7.5 at room temperature.
# For most compounds, 20 μM concentration was used for the selectivity assays. […] Following a 2 minute incubation of enzyme, compound, and NAD^+, the reaction was initiated by adding substrate. […] Data were fit to the four parameter EC50 equation using SigmaPlot (StatSys v12.3).
# Dehydrogenase activity of purified recombinant ALDH1A1, ALDH1A2, ALDH1A3, ALDH1B1, ALDH2, and ALDH3A1 was assayed spectrophotometrically by monitoring the formation of NADH at 340 nm (molar extinction coefficient of 6220 M^−1 cm^−1) on a Beckman DU-640 or Cary 300 Bio UV-Vis spectrophotometer. Characterization of ALDH1A1 WT and ALDH1A1 G458N were performed by co-varying acetaldehyde and NAD^+ concentrations in reactions containing 150-300 nM enzyme, 50-500 μM or 20-200 μM acetaldehyde, and 50-500 μM NAD^+ in 50 mM sodium BES, pH 7.5 at 25° C. Reactions were initiated by adding enzyme. Selectivity of compounds for dehydrogenase activity of ALDH1A1, ALDH1A2, ALDH1A3, ALDH1B1 and ALDH2 were measured in a solution containing 100-200 nM enzyme, 200 μM NAD^+, 1% DMSO, and 100 μM propionaldehyde (non-saturating for all enzymes tested, except ALDH2) in 50 mM sodium BES. ALDH3A1 activity was measured under the following conditions: 25 nM enzyme, 200 μM NAD^+, 1% DMSO, and 300 μM benzaldehyde (˜KM) in either 100 mM sodium phosphate buffer, pH 7.5 or 50 mM sodium BES, pH 7.5. All assays were performed at 25° C. and were initiated by the addition of the aldehyde substrate following a 2 minute pre-incubation with compound and cofactor. Selectivity was initially tested using 20 μM compound, with ALDH1A1-selective modulators further tested using 100 μM compound. […] After a 2 minute pre-incubation with compound and NAD^+, all reactions were initiated by the addition of propionaldehyde. Data were fit to the four parameter EC50 equation using SigmaPlot (StatSys v12.3). The values represent the average of three independent experiments (each n=3). The mode of inhibition was determined via steady-state kinetics by co-varying inhibitor and substrate concentrations at fixed concentration of the second substrate. All reactions contained 100-150 nM ALDH1A1 and 1% DMSO in 50 mM sodium BES, pH 7.5 at 25° C. […] All data were fit to competitive, noncompetitive, uncompetitive, and mixed inhibition models using both single substrate-single inhibitor or tight binding inhibition programs in SigmaPlot (StatSys v12.3). The appropriate model was selected through analysis of goodness-of-fit and the residuals of those fits. The values represent the average of three independent experiments (each n=3) using at least two protein preps.
# ALDH1A1, ALDH1A2, ALDH1A3, ALDH2, and ALDH3A1 were produced and purified as previously described. A highthroughput screen (HTS) of 64,000 compounds from the ChemDiv Corp. was performed to identify activators and inhibitors of ALDH1A1. The hydrolysis of para-nitrophenylacetate was used as a measure ALDH1A1 activity (see SM). Selectivity for closely related orthologs was tested at 20 and 100 μM using purified recombinant human ALDH1A1, ALDH1A2, ALDH1A3, ALDH2, and ALDH3A1. […]
# [1] = Table 4, NI/NI(A) at 100 μM compound, read-out: IC50 in μM (SE) ALDH1A2
SMILES,IC50 (ALDH1A2; [1]),IC50 (ALDH3A1),other results
CC(C)CCn1c(CN2CCN(C(=O)c3ccco3)CC2)nc2c1c(=O)n(C)c(=O)n2C [CM026],> 100 µM,> 100 µM,effect on ALDH1A2 (ALDH1A2; 20 μM compound): no effect; effect on aldehyde oxidation catalyzed by ALDH1A2 (ALDH1A2): modestly increased; effect on ALDH3A1 (ALDH3A1; 20 μM compound): no effect
Cn1c(=O)c2c(nc(CN3CCC(C(N)=O)CC3)n2CCCc2ccccc2)n(C)c1=O [CM028],> 100 µM,> 100 µM,
"CCOC(=O)CSc1nc2c(sc3ccccc32)c(=O)n1CCCN1CCCC1 [CM037, ethyl-2-((4-oxo-3-(3-(pryrrolidin-1-yl)propyl)-3,4-dihydrobenzo[4,5]thioeno[3,2-d]pyrimidin-2-yl)thio)acetate]",,,effect on aldehyde oxidation catalyzed by ALDH1A2 (ALDH1A2): no effect; effect on ALDH3A1 (ALDH3A1; concentrations up to 100 μM): no effect
CC(C)CCn1c(CN2CCOCC2)nc2c1c(=O)n(C)c(=O)n2C [CM056],> 100 µM,> 100 µM,
COc1ccc(C(=O)CSC#N)cc1OC [CM302],,,effect on ALDH3A1 (ALDH3A1; 20 μM compound): To a limited degree; IC50 with ALDH3A1 compared to ALDH1A1 and ALDH2 (ALDH3A1; fold higher): greater than 10 fold
"Cn1c(=O)c2c(ncn2C)n(C)c1=O [Caffeine, reference compound]",> 100 µM,> 100 µM,
"Cn1c(=O)c2[nH]cnc2n(C)c1=O [Theophylline, reference compound]",,> 100 µM,IC50 (ALDH1A2): > 100 µM
